Structures can show the parent of a compound that is named as a salt.
Legend:
Format in all cases: biochemical
Details in all cases: Caliper assay at 1 mM ATP
[1] = target: JAK1 (Homo sapiens (Human), UniProt P23458); assay: JAK Caliper Enzyme Assay at 1 mM ATP (JAK1)
Description: (§1) JAK Caliper Enzyme Assay at 1 mM ATP
(§2) Test article was solubilized in dimethyl sulfoxide (DMSO) to a stock concentration of 30 mM. An 11-point half log dilution series was created in DMSO with a top concentration of 600 μM. […] The compound plates were diluted 1 to 60 resulting in a top final assay compound concentration of 10 μM and a 2% DMSO concentration.
(§3) Test article and assay controls were added to a 384-well plate. Reaction mixtures contained 20 mM HEPES, pH 7.4, 10 mM magnesium chloride, 0.01% bovine serum albumin (BSA), 0.0005% Tween 20, 1 mM ATP and 1 μM peptide substrate. […] Enzyme concentrations and incubation times were optimized for each new enzyme preps and were modified slightly over time to ensure 20%-30% phosphorylation. The assays were stopped with a final concentration of 10 mM EDTA, 0.1% Coating Reagent and 100 mM HEPES, pH=7.4. The assay plates were placed on a Caliper Life Science Lab Chip 3000 (LC3000) instrument, and each well was sampled using appropriate separation conditions to measure the unphosphorylated and phosphorylated peptide.

[2] = target: JAK3 (Homo sapiens (Human), UniProt P52333); assay: JAK Caliper Enzyme Assay at 1 mM ATP (JAK3)
Description: as §1, §2, §3

[3] = target: TYK2 (Homo sapiens (Human), UniProt P29597); assay: JAK Caliper Enzyme Assay at 1 mM ATP (TYK2)
Description: as §1, §2, §3

[4] = target: JAK2 (Homo sapiens (Human), UniProt O60674); assay: JAK Caliper Enzyme Assay at 1 mM ATP (JAK2)
Description: as §1, §2, §3

Sequence of JAK2 (O60674 whole entry, species assumed): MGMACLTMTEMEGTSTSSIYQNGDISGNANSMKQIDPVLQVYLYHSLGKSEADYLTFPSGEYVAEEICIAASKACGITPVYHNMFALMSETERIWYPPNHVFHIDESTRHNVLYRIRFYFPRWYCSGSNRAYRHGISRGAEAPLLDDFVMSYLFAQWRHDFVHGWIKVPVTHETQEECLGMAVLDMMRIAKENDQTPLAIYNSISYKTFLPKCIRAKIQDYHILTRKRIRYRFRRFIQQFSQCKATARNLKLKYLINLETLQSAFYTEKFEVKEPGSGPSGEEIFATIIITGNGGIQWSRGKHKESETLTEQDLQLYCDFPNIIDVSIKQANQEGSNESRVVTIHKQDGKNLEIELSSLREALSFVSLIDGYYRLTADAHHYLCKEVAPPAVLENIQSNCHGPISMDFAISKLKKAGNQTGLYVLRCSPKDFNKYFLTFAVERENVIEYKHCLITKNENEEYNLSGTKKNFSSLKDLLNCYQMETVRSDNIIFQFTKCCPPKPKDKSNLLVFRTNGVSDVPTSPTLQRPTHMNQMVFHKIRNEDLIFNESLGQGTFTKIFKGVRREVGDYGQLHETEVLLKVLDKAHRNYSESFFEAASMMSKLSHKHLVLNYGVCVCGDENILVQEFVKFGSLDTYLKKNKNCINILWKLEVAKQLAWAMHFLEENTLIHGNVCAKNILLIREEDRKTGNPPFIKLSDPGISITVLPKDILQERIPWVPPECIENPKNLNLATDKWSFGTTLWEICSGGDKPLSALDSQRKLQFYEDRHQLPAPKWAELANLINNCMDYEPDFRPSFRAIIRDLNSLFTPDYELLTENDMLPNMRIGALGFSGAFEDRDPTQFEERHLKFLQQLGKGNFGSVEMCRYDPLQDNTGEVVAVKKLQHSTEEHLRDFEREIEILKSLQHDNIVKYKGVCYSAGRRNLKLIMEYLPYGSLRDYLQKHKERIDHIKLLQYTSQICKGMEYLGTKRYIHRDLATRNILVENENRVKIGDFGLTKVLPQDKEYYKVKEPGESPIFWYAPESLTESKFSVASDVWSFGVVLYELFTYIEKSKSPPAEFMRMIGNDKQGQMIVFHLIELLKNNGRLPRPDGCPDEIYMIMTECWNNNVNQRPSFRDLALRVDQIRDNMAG
Sequence of JAK1 (P23458 whole entry, species assumed): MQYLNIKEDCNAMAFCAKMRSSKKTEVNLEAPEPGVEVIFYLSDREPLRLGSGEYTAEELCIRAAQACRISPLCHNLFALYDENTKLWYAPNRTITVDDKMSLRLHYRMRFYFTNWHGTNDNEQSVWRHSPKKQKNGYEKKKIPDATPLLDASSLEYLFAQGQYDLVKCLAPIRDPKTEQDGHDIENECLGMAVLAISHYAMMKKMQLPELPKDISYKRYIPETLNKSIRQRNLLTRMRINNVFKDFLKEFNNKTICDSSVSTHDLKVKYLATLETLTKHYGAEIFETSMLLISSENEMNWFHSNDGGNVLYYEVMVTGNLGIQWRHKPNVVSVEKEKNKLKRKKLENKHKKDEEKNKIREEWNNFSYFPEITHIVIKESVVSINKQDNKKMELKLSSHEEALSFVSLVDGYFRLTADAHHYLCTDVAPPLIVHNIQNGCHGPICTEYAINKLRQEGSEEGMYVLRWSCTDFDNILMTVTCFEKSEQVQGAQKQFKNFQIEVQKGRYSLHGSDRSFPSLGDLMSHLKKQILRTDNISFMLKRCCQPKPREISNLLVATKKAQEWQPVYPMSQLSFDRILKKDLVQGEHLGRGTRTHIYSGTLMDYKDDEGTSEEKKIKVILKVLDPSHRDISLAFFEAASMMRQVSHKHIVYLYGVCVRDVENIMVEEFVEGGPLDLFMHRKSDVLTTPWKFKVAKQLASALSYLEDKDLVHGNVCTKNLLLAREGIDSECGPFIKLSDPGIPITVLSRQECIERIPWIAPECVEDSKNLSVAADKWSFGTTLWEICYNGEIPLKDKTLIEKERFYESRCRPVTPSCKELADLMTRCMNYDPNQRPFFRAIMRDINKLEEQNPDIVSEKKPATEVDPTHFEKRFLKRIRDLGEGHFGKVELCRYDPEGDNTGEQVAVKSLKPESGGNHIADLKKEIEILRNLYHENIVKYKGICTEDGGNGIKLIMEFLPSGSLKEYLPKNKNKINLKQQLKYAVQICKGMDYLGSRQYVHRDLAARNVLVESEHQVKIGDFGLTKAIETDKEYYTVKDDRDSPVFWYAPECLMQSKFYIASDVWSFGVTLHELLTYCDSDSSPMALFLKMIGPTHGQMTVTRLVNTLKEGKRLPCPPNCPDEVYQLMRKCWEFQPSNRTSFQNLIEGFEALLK
Sequence of JAK3 (P52333 whole entry, species assumed): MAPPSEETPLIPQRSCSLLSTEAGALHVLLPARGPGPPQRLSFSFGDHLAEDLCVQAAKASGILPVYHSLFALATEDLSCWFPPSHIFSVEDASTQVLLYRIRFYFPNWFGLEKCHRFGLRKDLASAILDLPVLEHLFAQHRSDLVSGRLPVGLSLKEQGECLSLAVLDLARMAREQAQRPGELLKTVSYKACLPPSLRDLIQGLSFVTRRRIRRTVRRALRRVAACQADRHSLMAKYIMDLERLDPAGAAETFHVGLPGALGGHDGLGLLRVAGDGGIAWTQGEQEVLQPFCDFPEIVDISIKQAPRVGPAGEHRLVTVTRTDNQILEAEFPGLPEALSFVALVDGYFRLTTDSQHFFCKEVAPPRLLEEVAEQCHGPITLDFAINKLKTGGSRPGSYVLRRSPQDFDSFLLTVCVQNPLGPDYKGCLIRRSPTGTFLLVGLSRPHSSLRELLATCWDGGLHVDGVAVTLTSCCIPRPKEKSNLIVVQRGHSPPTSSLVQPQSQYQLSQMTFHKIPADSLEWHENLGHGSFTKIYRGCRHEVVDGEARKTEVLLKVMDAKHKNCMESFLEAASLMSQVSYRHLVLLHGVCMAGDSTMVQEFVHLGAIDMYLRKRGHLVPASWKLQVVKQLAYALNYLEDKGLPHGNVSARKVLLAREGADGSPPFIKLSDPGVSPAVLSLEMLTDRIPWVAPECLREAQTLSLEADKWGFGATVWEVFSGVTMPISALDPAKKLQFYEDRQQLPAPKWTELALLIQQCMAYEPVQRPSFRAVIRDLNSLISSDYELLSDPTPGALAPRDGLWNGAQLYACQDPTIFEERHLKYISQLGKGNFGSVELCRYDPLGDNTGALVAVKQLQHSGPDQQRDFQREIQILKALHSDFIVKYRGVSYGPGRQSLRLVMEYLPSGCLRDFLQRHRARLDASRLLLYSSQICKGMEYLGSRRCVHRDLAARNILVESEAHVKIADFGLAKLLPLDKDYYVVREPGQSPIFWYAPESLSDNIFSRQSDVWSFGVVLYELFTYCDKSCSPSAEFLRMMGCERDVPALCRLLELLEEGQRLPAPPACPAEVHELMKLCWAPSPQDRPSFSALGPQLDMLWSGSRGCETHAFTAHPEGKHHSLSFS
Sequence of TYK2 (P29597 whole entry, species assumed): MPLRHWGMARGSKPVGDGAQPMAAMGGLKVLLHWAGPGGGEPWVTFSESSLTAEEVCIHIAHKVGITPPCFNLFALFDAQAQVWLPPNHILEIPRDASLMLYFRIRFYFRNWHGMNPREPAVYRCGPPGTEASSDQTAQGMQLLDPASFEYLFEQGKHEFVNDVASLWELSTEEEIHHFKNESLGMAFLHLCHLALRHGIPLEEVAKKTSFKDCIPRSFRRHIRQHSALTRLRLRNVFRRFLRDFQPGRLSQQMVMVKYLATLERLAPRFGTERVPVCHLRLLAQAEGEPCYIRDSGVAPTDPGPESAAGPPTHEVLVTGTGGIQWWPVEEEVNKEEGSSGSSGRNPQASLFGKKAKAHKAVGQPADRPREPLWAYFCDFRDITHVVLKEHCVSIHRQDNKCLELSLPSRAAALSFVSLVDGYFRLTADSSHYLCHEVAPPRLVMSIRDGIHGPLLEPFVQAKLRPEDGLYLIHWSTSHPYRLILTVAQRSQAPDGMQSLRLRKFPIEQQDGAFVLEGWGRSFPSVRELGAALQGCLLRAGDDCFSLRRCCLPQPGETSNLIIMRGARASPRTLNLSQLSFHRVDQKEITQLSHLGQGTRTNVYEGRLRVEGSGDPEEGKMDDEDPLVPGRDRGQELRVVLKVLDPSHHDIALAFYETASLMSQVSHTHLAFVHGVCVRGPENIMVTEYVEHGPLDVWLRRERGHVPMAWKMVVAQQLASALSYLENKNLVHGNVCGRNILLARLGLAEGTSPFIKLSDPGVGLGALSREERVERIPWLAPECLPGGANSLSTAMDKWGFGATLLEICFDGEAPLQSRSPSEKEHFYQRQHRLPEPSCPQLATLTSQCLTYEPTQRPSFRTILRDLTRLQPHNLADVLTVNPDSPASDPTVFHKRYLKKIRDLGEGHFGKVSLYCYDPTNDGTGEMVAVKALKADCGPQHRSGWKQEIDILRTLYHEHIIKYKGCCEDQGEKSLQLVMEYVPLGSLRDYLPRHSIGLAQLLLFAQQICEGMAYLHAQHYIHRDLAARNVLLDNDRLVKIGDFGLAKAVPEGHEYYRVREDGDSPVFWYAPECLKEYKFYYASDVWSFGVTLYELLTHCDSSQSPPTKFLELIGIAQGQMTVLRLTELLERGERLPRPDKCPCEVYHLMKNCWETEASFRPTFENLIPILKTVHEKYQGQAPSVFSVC

Compound	IC50 [1] [nM]	IC50 [2] [nM]	IC50 [3] [nM]	IC50 [4] [nM]
CCc1cc(O)c(F)cc1-c1cc2[nH]nc(C(=O)NC)c2c(NCCc2ccc(O)cc2)n1 [Example 4, 6-(2-ethyl-5-fluoro-4-hydroxyphenyl)-4-{[2-(4-hydroxyphenyl)ethyl]amino}-N-methyl-1H-pyrazolo[4,3-c]pyridine-3-carboxamide]	1.7	26.6	15.3	–
CCc1cc(O)c(F)cc1-c1cc2[nH]nc(C(=O)NC)c2c(NCc2ccc(O)cc2N(C)S(C)(=O)=O)n1 [Example 29, 6-(2-Ethyl-5-fluoro-4-hydroxyphenyl)-4-({4-hydroxy-2-[methyl(methylsulfonyl)amino]benzyl}amino)-N-methyl-1H-pyrazolo[4,3-c]pyridine-3-carboxamide]	1.5	33.2	19	–
CNC(=O)c1n[nH]c2cc(-c3cc(F)c(O)cc3C3CC3)nc(NCc3ccccc3N(C)S(C)(=O)=O)c12 [Example 37, 6-(2-cyclopropyl-5-fluoro-4-hydroxyphenyl)-N-methyl-4-({2-[methyl(methyl-sulfonyl)amino]benzyl}amino)-1H-pyrazolo[4,3-c]pyridine-3-carboxamide]	5	52	169	–
CN(c1ccc(O)cc1CNc1nc(-c2cc(F)c(O)cc2CC(F)(F)F)cc2[nH]nc(C(N)=O)c12)S(=O)(=O)c1ccccc1 [Example 42, 6-[5-fluoro-4-hydroxy-2-(2,2,2-trifluoroethyl)phenyl]-4-({5-hydroxy-2-[methyl(phenylsulfonyl)-amino]benzyl}amino)-1H-pyrazolo[4,3-c]pyridine-3-carboxamide]	25.3	534	233	–
CNC(=O)c1n[nH]c2cc(-c3cc(F)c(O)cc3CC(F)(F)F)nc(NCc3nccnc3N(C)S(=O)(=O)c3ccccc3)c12 [Example 44, 6-[5-fluoro-4-hydroxy-2-(2,2,2-trifluoroethyl)phenyl]-N-methyl-4-[({3-[methyl(phenylsulfonyl)amino]pyrazin-2-yl}methyl)amino]-1H-pyrazolo[4,3-c]pyridine-3-carboxamide]	25.8	293	999	–
CNC(=O)c1n[nH]c2cc(-c3cc(F)c(O)cc3CC(F)(F)F)nc(NCc3cnccc3N(C)S(C)(=O)=O)c12 [Example 48, 6-[5-fluoro-4-hydroxy-2-(2,2,2-trifluoroethyl)phenyl]-N-methyl-4-[({4-[methyl(methylsulfonyl)amino]pyridin-3-yl}methyl)amino]-1H-pyrazolo[4,3-c]pyridine-3-carboxamide]	67.6	148	–	188
CNC(=O)c1n[nH]c2cc(-c3cc(F)c(O)cc3C3CC3)nc(NCc3cccnc3N(C)S(C)(=O)=O)c12 [Example 49, 6-(2-cyclopropyl-5-fluoro-4-hydroxyphenyl)-N-methyl-4-[({2-[methyl(methylsulfonyl)amino]pyridin-3-yl}methyl)amino]-1H-pyrazolo[4,3-c]pyridine-3-carboxamide]	78	248	–	181
CNC(=O)c1n[nH]c2cc(-c3cc(F)c(O)cc3CC(F)(F)F)nc(NCc3cccnc3N(C)S(C)(=O)=O)c12 [Example 53, 6-[5-fluoro-4-hydroxy-2-(2,2,2-trifluoroethyl)phenyl]-N-methyl-4-[({2-[methyl(methylsulfonyl)amino]pyridin-3-yl}methyl)amino]-1H-pyrazolo[4,3-c]pyridine-3-carboxamide]	9.7	102	243	–
CNC(=O)c1n[nH]c2cc(-c3cc(F)c(O)cc3CC(F)(F)F)nc(NCc3ccccc3CS(N)(=O)=O)c12 [Example 64, 6-[5-fluoro-4-hydroxy-2-(2,2,2-trifluoroethyl)phenyl]-N-methyl-4-{[2-(sulfamoylmethyl)benzyl]amino}-1H-pyrazolo[4,3-c]pyridine-3-carboxamide]	3.3	36.9	153	–
Cc1ccc(N(C)S(C)(=O)=O)c(CNc2nc(-c3cc(F)c(O)cc3CC(F)(F)F)cc3[nH]nc(C(N)=O)c23)c1 [Example 81, 6-[5-fluoro-4-hydroxy-2-(2,2,2-trifluoroethyl)phenyl]-4-({5-methyl-2-[methyl(methylsulfonyl)-amino]benzyl}amino)-1H-pyrazolo[4,3-c]pyridine-3-carboxamide]	4.7	103	298	–
CCN(c1ccccc1CNc1nc(-c2cc(F)c(O)cc2CC(F)(F)F)cc2[nH]nc(C(N)=O)c12)S(=O)(=O)CC [Example 82, 4-((2-(N-ethylethylsulfonamido)benzyl)amino)-6-(5-fluoro-4-hydroxy-2-(2,2,2-trifluoroethyl)phenyl)-1H-pyrazolo[4,3-c]pyridine-3-carboxamide]	13.7	313	121	–
CN(c1ccccc1CNc1nc(-c2cc(F)c(O)cc2CC(F)(F)F)nc2[nH]nc(C(N)=O)c12)S(C)(=O)=O [Example 98, 6-(5-Fluoro-4-hydroxy-2-(2,2,2-trifluoroethyl)phenyl)-4-((2-(N-methylmethylsulfonamido)benzyl)amino)-1H-pyrazolo[3,4-d]pyrimidine-3-carboxamide]	4.9	39.6	600	–
CS(=O)(=O)N(CCO)c1ccccc1CNc1nc(-c2cc(F)c(O)cc2CC(F)(F)F)nc2[nH]nc(C(N)=O)c12 [Example 101, 6-(5-fluoro-4-hydroxy-2-(2,2,2-trifluoroethyl)phenyl)-4-((2-(N-(2-hydroxyethyl)methylsulfonamido)benzyl)amino)-1H-pyrazolo[3,4-d]pyrimidine-3-carboxamide]	10.5	51.1	–	–
CCc1cc(O)ccc1-c1cc2[nH]ncc2c(N2CC(Oc3cc(C#N)ccc3Cl)C2)n1 [Example 120, 4-chloro-3-({1-[6-(2-ethyl-4-hydroxyphenyl)-1H-pyrazolo[4,3-c]pyridin-4-yl]azetidin-3-yl}oxy)benzonitrile formate]	10.8	89.2	–	128
CCc1cc(O)ccc1-c1cc2[nH]ncc2c(NCc2ccccc2N(C)S(C)(=O)=O)n1 [Example 125, N-[2-({[6-(2-Ethyl-4-hydroxyphenyl)-1H-pyrazolo[4,3-c]pyridin-4-yl]amino}methyl)phenyl]-N-methylmethanesulfonamide hydrochloride]	0.2	4.4	5.6	–
CCc1cc(O)c(F)cc1-c1cc2[nH]ncc2c(N(CCc2ccc(OC)c(OC)c2)Cc2ccccc2N(C)S(C)(=O)=O)n1 [Example 129, N-[2-({[2-(3,4-dimethoxyphenyl)ethyl][6-(2-ethyl-5-fluoro-4-hydroxyphenyl)-1H-pyrazolo[4,3-c]pyridin-4-yl]amino}methyl)phenyl]-N-methylmethanesulfonamide hydrochloride]	11.6	180	56.6	–
CCCCN(c1ccccc1CNc1nc(-c2cc(F)c(O)cc2CC)cc2[nH]ncc12)S(C)(=O)=O [Example 139]	–	27.5	1990	16.7
CCc1cc(O)c(F)cc1-c1cc2[nH]ncc2c(N(CCN2CCOCC2)Cc2ccccc2N(C)S(C)(=O)=O)n1 [Example 140, N-[2-({[6-(2-ethyl-5-fluoro-4-hydroxyphenyl)-1H-pyrazolo[4,3-c]pyridin-4-yl][2-(morpholin-4-yl)ethyl]amino}methyl)phenyl]-N-methylmethanesulfonamide]	18.1	131	–	53.5
Oc1cc(CC(F)(F)F)c(-c2nc(NCC3CC3)c3cn[nH]c3n2)cc1F [Example 151, 4-{4-[(cyclopropylmethyl)-amino]-1H-pyrazolo[3,4-d]pyrimidin-6-yl}-2-fluoro-5-(2,2,2-trifluoroethyl)phenol]	33.9	125	2980	–
Oc1cc(CC(F)(F)F)c(-c2nc(NCCC3CC3)c3cn[nH]c3n2)cc1F [Example 152, 4-{4-[(2-cyclopropylethyl)amino]-1H-pyrazolo[3,4-d]pyrimidin-6-yl}-2-fluoro-5-(2,2,2-trifluoroethyl)phenol]	41.6	157	–	228
CCCCNc1nc(-c2cc(F)c(O)cc2CC(F)(F)F)nc2[nH]ncc12 [Example 154, 4-[4-(butylamino)-1H-pyrazolo[3,4-d]pyrimidin-6-yl]-2-fluoro-5-(2,2,2-trifluoroethyl)phenol]	77.6	228	5140	–
CN(c1ccc(O)cc1CNc1nc(-c2cc(F)c(O)cc2CC(F)(F)F)nc2[nH]nc(-c3nnc(C4CCN(C(N)=O)CC4)[nH]3)c12)S(C)(=O)=O [Example 167, 4-(5-{6-[5-Fluoro-4-hydroxy-2-(2,2,2-trifluoroethyl)phenyl]-4-({5-hydroxy-2-[methyl(methylsulfonyl)amino]benzyl}amino)-1H-pyrazolo[3,4-d]pyrimidin-3-yl}-4H-1,2,4-triazol-3-yl)piperidine-1-carboxamide]	4.1	47.4	310	–
N-benzyl-2-[6-(2-ethyl-4-hydroxyphenyl)-1H-pyrazolo[4,3-c]pyridin-4-yl]-1,2,3,4-tetrahydroiso-quinoline-5-carboxamide formate [Example 117]	–	41.6	425	–
